Assay [1] has as its system PC-9. Put plainly: Growth inhibition of human PC9 cells grown under 3D anchorage-independent soft-agar conditions at 0.617 nM incubated for 14 days by alamar blue dye based assay relative to control. The note with it: PC-9, 336 h, read-out: GI. The assay is classed as functional.
Assay [2] concerns PC-9. Kind of assay: Growth inhibition of human PC9 cells grown under 3D anchorage-independent soft-agar conditions at 16.7 nM incubated for 14 days by alamar blue dye based assay relative to control. Type of assay: functional. To be noted: PC-9, 336 h, read-out: GI.
Assay [3] deals with PC-9. Put plainly: Growth inhibition of human PC9 cells grown under 3D anchorage-independent soft-agar conditions at 5.56 nM incubated for 14 days by alamar blue dye based assay relative to control. Type of assay: functional. To be noted: PC-9, 336 h, read-out: GI. For orientation: Alamar Blue is a resazurin reagent that responds to reducing activity.
Assay [4] has as its system PC-9. Kind of assay: Growth inhibition of human PC9 cells grown under 3D anchorage-independent soft-agar conditions at 1.85 nM incubated for 14 days by alamar blue dye based assay relative to control. Type of assay: functional. To be noted: PC-9, 336 h, read-out: GI.
Assay [5] concerns PC-9. Kind of assay: Growth inhibition of human PC9 cells grown under 3D anchorage-independent soft-agar conditions at 50 nM incubated for 14 days by alamar blue dye based assay relative to control. Type of assay: functional. To be noted: PC-9, 336 h, read-out: GI.
The test system of assay [6] is NCI-H1792. Put plainly: Growth inhibition of human NCI-H1792 cells grown under 3D anchorage-independent soft-agar conditions at 3330 nM incubated for 14 days by alamar blue dye based assay relative to control. The assay is classed as functional. To be noted: NCI-H1792, 336 h, read-out: GI.
The subject of assay [7] is NCI-H1792. Put plainly: Growth inhibition of human NCI-H1792 cells grown under 3D anchorage-independent soft-agar conditions at 370 nM incubated for 14 days by alamar blue dye based assay relative to control. Type of assay: functional. To be noted: NCI-H1792, 336 h, read-out: GI.
Assay [8] relates to SW900. Put plainly: Growth inhibition of human SW900 cells grown under 3D anchorage-independent soft-agar conditions at 164 nM incubated for 14 days by alamar blue dye based assay relative to control. Type of assay: functional. To be noted: SW900, 336 h, read-out: GI.
Assay [9] deals with SW900. Put plainly: Growth inhibition of human SW900 cells grown under 3D anchorage-independent soft-agar conditions at 123 nM incubated for 14 days by alamar blue dye based assay relative to control. Type of assay: functional. To be noted: SW900, 336 h, read-out: GI.
The subject of assay [10] is SW900. Put plainly: Growth inhibition of human SW900 cells grown under 3D anchorage-independent soft-agar conditions at 3330 nM incubated for 14 days by alamar blue dye based assay relative to control. Type of assay: functional. The note with it: SW900, 336 h, read-out: GI.
The test system of assay [11] is NCI-H1792. Put plainly: Growth inhibition of human NCI-H1792 cells grown under 3D anchorage-independent soft-agar conditions at 164 nM incubated for 14 days by alamar blue dye based assay relative to control. The assay is classed as functional. The note with it: NCI-H1792, 336 h, read-out: GI.
The test system of assay [12] is SW900. Kind of assay: Growth inhibition of human SW900 cells grown under 3D anchorage-independent soft-agar conditions at 370 nM incubated for 14 days by alamar blue dye based assay relative to control. The assay is classed as functional. The note with it: SW900, 336 h, read-out: GI.
The test system of assay [13] is SW900. Put plainly: Growth inhibition of human SW900 cells grown under 3D anchorage-independent soft-agar conditions at 1110 nM incubated for 14 days by alamar blue dye based assay relative to control. The assay is classed as functional. To be noted: SW900, 336 h, read-out: GI.
Assay [14] has as its system NCI-H1792. Put plainly: Growth inhibition of human NCI-H1792 cells grown under 3D anchorage-independent soft-agar conditions at 1110 nM incubated for 14 days by alamar blue dye based assay relative to control. The assay is classed as functional. To be noted: NCI-H1792, 336 h, read-out: GI.
The test system of assay [15] is NCI-H1792. Put plainly: Growth inhibition of human NCI-H1792 cells grown under 3D anchorage-independent soft-agar conditions at 123 nM incubated for 14 days by alamar blue dye based assay relative to control. The assay is classed as functional. To be noted: NCI-H1792, 336 h, read-out: GI.
In assay [16] the test system is A549. Kind of assay: Growth inhibition of human A549 cells grown under 3D anchorage-independent soft-agar conditions at 100 nM incubated for 14 days by alamar blue dye based assay relative to control. The assay is classed as functional. The note with it: A549, 336 h, read-out: GI.
The test system of assay [17] is A549. Put plainly: Growth inhibition of human A549 cells grown under 3D anchorage-independent soft-agar conditions at 3.7 nM incubated for 14 days by alamar blue dye based assay relative to control. The note with it: A549, 336 h, read-out: GI. Type of assay: functional.
In assay [18] the test system is NCI-H1792. Kind of assay: Growth inhibition of human NCI-H1792 cells grown under 3D anchorage-independent soft-agar conditions at 1.23 nM incubated for 14 days by alamar blue dye based assay relative to control. The assay is classed as functional. The note with it: NCI-H1792, 336 h, read-out: GI.
Assay [19] concerns A549. Kind of assay: Growth inhibition of human A549 cells grown under 3D anchorage-independent soft-agar conditions at 33.3 nM incubated for 14 days by alamar blue dye based assay relative to control. The assay is classed as functional. The note with it: A549, 336 h, read-out: GI.
In assay [20] the test system is NCI-H1792. Put plainly: Growth inhibition of human NCI-H1792 cells grown under 3D anchorage-independent soft-agar conditions at 100 nM incubated for 14 days by alamar blue dye based assay relative to control. The assay is classed as functional. To be noted: NCI-H1792, 336 h, read-out: GI.
The test system of assay [21] is A549. Kind of assay: Growth inhibition of human A549 cells grown under 3D anchorage-independent soft-agar conditions at 11.1 nM incubated for 14 days by alamar blue dye based assay relative to control. Type of assay: functional. To be noted: A549, 336 h, read-out: GI.
The test system of the next assay is MIA PaCa-2. Put plainly: Antitumor activity against human MIAPaCa2 cells grown under 3D anchorage-independent soft-agar conditions at xenografted in BomTacNMRI-Foxn1 nu mouse assessed as inhibition of tumor regression at 10 mg/kg, iv dosed in q7d regime relative to control. Type of assay: functional, organism-based.
Assay [22] concerns NCI-H1792. Put plainly: Growth inhibition of human NCI-H1792 cells grown under 3D anchorage-independent soft-agar conditions at 3.7 nM incubated for 14 days by alamar blue dye based assay relative to control. Type of assay: functional. The note with it: NCI-H1792, 336 h, read-out: GI.
Assay [23] concerns NCI-H1792. Put plainly: Growth inhibition of human NCI-H1792 cells grown under 3D anchorage-independent soft-agar conditions at 11.1 nM incubated for 14 days by alamar blue dye based assay relative to control. The assay is classed as functional. The note with it: NCI-H1792, 336 h, read-out: GI.
Assay [24] concerns NCI-H1792. Put plainly: Growth inhibition of human NCI-H1792 cells grown under 3D anchorage-independent soft-agar conditions at 33.3 nM incubated for 14 days by alamar blue dye based assay relative to control. Type of assay: functional. To be noted: NCI-H1792, 336 h, read-out: GI.
For assay [25], the system named is A549. Kind of assay: Growth inhibition of human A549 cells grown under 3D anchorage-independent soft-agar conditions at 1.23 nM incubated for 14 days by alamar blue dye based assay relative to control. The assay is classed as functional. To be noted: A549, 336 h, read-out: GI.
For assay [26], the system named is A549. Kind of assay: Growth inhibition of human A549 cells grown under 3D anchorage-independent soft-agar conditions at 370 nM incubated for 14 days by alamar blue dye based assay relative to control. Type of assay: functional. To be noted: A549, 336 h, read-out: GI.
Assay [27] deals with A549. Kind of assay: Growth inhibition of human A549 cells grown under 3D anchorage-independent soft-agar conditions at 123 nM incubated for 14 days by alamar blue dye based assay relative to control. The assay is classed as functional. The note with it: A549, 336 h, read-out: GI.
Assay [28] deals with A549. Kind of assay: Growth inhibition of human A549 cells grown under 3D anchorage-independent soft-agar conditions at 1110 nM incubated for 14 days by alamar blue dye based assay relative to control. Type of assay: functional. To be noted: A549, 336 h, read-out: GI.
The subject of assay [29] is A549. Put plainly: Growth inhibition of human A549 cells grown under 3D anchorage-independent soft-agar conditions at 164 nM incubated for 14 days by alamar blue dye based assay relative to control. The assay is classed as functional. To be noted: A549, 336 h, read-out: GI.
Assay [30] relates to A549. Put plainly: Growth inhibition of human A549 cells grown under 3D anchorage-independent soft-agar conditions at 3330 nM incubated for 14 days by alamar blue dye based assay relative to control. Type of assay: functional. The note with it: A549, 336 h, read-out: GI.

Here are results for four compounds from ChEMBL document CHEMBL4420081, “Novel benzylamino substituted quinazolines and derivatives as sos1 inhibitors” (2018).

Activity calls are given as the source filed them. No cut-off for these calls is given here.

For `C#Cc1cccc(Nc2ncnc3cc(OCCOC)c(OCCOC)cc23)c1` [ERLOTINIB], the inhibition of growth at 0.000617 µM in the assay with PC-9 [1] is 0%. In addition, the inhibition of growth at 0.0167 µM with PC-9 [2] came out at 147%. Also, the inhibition of growth at 0.00556 µM with PC-9 [3] stood at 49%. In addition, the inhibition of growth at 0.00185 µM with PC-9 [4] came to 12%. The inhibition of growth at 0.05 µM in the assay on PC-9 [5] came out at 199%.

Take `COC(=O)c1ccc2c(c1)NC(=O)/C2=C(\Nc1ccc(N(C)C(=O)CN2CCN(C)CC2)cc1)c1ccccc1` [NINTEDANIB]: the inhibition of growth at 3.33 µM in the assay with NCI-H1792 [6] came to 86%; with SW900 [10] it was 19%. In addition, the inhibition of growth at 0.37 µM in the assay with NCI-H1792 [7] was 7%; in the assay on SW900 [12], -37%. Besides, the inhibition of growth at 0.164 µM in the assay on SW900 [8] came out at 199%; in the assay on NCI-H1792 [11], 186%. The inhibition of growth at 0.123 µM was -39% in the assay with SW900 [9] and 1% in the assay with NCI-H1792 [15]. The inhibition of growth at 1.11 µM in the assay on SW900 [13] is -18%; in the assay on NCI-H1792 [14], 26%.

Turning to `CC(=O)O[C@H]1C(=O)[C@@]2(C)[C@H]([C@H](OC(=O)c3ccccc3)[C@]3(O)C[C@H](OC(=O)[C@H](O)[C@@H](NC(=O)c4ccccc4)c4ccccc4)C(C)=C1C3(C)C)[C@]1(OC(C)=O)CO[C@@H]1C[C@@H]2O` [PACLITAXEL], the inhibition of growth at 0.1 µM came to 114% in the assay with A549 [16] and 183% in the assay on NCI-H1792 [20]. The inhibition of growth at 0.0037 µM in the assay with A549 [17] stood at 54%; in the assay on NCI-H1792 [22], 19%. Besides, the inhibition of growth at 0.00123 µM with NCI-H1792 [18] came to 7%; with A549 [25] it was 12%. Moreover, the inhibition of growth at 0.0333 µM with A549 [19] is 97%; in the assay on NCI-H1792 [24], 96%. For the same compound, the inhibition of growth at 0.0111 µM is 86% in the assay with A549 [21] and 66% in the assay with NCI-H1792 [23]. In addition, the inhibition entry in the assay on MIA PaCa-2 is “inactive”.

With `COc1cc(F)c(F)c(Nc2ccc(I)cc2F)c1NS(=O)(=O)C1(C[C@H](O)CO)CC1` [REFAMETINIB], the inhibition of growth at 0.37 µM with A549 [26] is 11%. For the same compound, the inhibition of growth at 0.123 µM in the assay with A549 [27] amounted to 5%. Also, in the assay on A549 [28], the inhibition of growth at 1.11 µM was found to be 75%. The inhibition of growth at 0.164 µM in the assay on A549 [29] worked out at 212%. The inhibition of growth at 3.33 µM in the assay on A549 [30] is 209%.
